Laboratory results as given in patent US20240409602A1, “PEPTIDE MODULATORS OF NEUROLIGIN 4-NEUREXIN 1-BETA AXIS FOR TREATMENT OF LIVER DISORDERS” (HADASIT MEDICAL RESEARCH SERVICES AND DEVELOPMENT LTD., priority 2022, published 2024).
One block for each molecule: values may come before it. No end group written: not given here.

How the values were obtained:
LX2 cells [1] = assay: LX2 cell activity (αSMA) in monoculture, flow cytometry; assay type: cell-based, human; conditions: monoculture, 2000, 4000, 8000 ng/ml (peptide 3: 2000 or 4000 ng/ml), vs untreated
Excerpt: (§1) Inhibitory Peptide synthesis: inhibitory peptide 1: MEQGEFLNYD (SEQ ID NO: 1), inhibitory peptide 2: QILMEQGEFLNYDIM (SEQ ID NO: 2), inhibitory peptide 3: […] (SEQ ID NO: 3), and a control peptide having a scrambled sequence: LEGEDQNFYM (SEQ ID NO: 7) were synthesized by Pepscan Ltd. at a purity of 98.3%.
(§2) Cells: primary NK cells were isolated from patients having advanced fibrosis, human hepatic stellate cells (LX2) were commercially purchased.
(§3) Fluorescence-activated cell sorting (FACS): Staining colors of antibodies was as follows: αSMA>PE, CD107>FITC, CD56>. After analysis using LSR Fortessa analyzer, raw data was transferred to analysis program FCS Express v7.0.
Following that, the NLGn4-Nrx1β PPI peptides were screened for their effect on the activity of LX2 cells, which was evaluated by measuring the levels of αSMA activation marker. Monocultures of LX2 cells were stimulated with increasing concentrations of the NLGn4-Nrx1βPPI peptides (FIGS. 3A-C).

NK cells = assay: NK cell activation (CD107a) in monoculture, flow cytometry; assay type: cell-based, human
Excerpt: as §1, §2
Monoculture conditions: peptides were supplemented to media of cultured NK cells for 6 h stimulation.
as §3
Three peptides potentially having an inhibitory effect on NLGn4-Nrx1β PPI were generated. The three peptides (peptide 1, peptide 2, and peptide 3) consist of different amino acid sequences (SEQ ID NO: 1, SEQ ID NO: 2, and SEQ ID NO: 3, respectively) that vary in length, all derived from the same binding site for the NLGn4X ligand β-neurexin. The active binding site includes a domain containing the amino acids 359-364 in NLGn4X and the epitopes critical for binding are E361, L363, H267, Y463, and E270.
Initially, peptides were screened for their effect on the activity of NK cells, which was evaluated by measuring the levels of CD107a activation marker. Monocultures of NK cells were stimulated with increasing concentrations of the potentially inhibitory NLGn4-Nrx1β PPI peptides (FIG. 1 and FIGS. 2A-B).

LX2 cells [2] = assay: αSMA in LX2 cells co-cultured with peptide pre-activated NK cells, flow cytometry; assay type: cell-based, human
Method: as §2
Co-culture conditions: co-cultures conditions—peptides were supplemented to media of cultured NK cells for 6 h stimulation followed by a wash, trypsinization, and coculturing on LX2 cells for an additional 24 h.
as §3
To test if NLGn4-Nrx1β PPI inhibitory peptides mediated deactivation of LX2 cells is more prominent in the presence of NK cells, a co-culture setting was established for LX2 cells in the presence or absence of activated NK cells (FIGS. 4A-C).
In this setting, NK cells were stimulated with increasing concentrations of NLGn4-Nrx1βPPI inhibitory peptides before co-culturing them with LX2 cells, to examine whether pre-activation makes them more functional in deactivating LX2 cells.

[3] = tested on: CCl4-induced mice (acute hepatic fibrosis model); assay: Serum ALT by ELISA in CCl4 model; assay type: in vivo; conditions: 5 or 10 mg/mice i.p. 3×/week for 4 weeks
Method: (§4) Animal model: 40 WT naïve C57BL/6J male mice (12 weeks) were either induced for acute hepatic fibrosis by i.p injections of 0.5 μl pure carbon tetrachloride CCl4/g body weight (one to nine dilution in mineral oil) (CCl4; Sigma, C-5331) 3×/week for four weeks as an advanced model of hepatic fibrosis, or left untreated (induced n=32, control n=8 per experiment). NLGn4-Nrx1β PPI modulator peptide 1 was i.p injected to CCl4 induced mice as preventive doses from the beginning of the model starting at 1st week of CCl4 at a concentration of 5 and 10 mg/mice 3×/week for four weeks (5 mg/mice n=8, 10 mg/mice n=8). A scrambled peptide was also i.p injected to CCl4 induced mice (5 mg/mice n=8, 10 mg/mice n=8). Food and water intake were recorded every week. Mice were sacrificed two days after the final CCl4 injection. To this end, the animals were weighed and anesthetized with inhaled 5% isoflurane for 10 seconds before cervical dislocation.
(§5) Histological and biochemical assessment of mice livers: The posterior one-third of the liver was fixed in 4% formalin for 24 hours and then paraffin-embedded in an automated tissue processor. […] Serum ALT concentrations were determined using ELISA. […]

[4] = tested on: CCl4-induced mice (acute hepatic fibrosis model); assay: Liver histology (H&E, Sirius Red, Masson's trichrome) in CCl4 model; assay type: in vivo; conditions: 5 or 10 mg/mice i.p. 3×/week for 4 weeks
Method: as §4, §5

liver NK cells = assay: F-actin expression in liver NK cells (western blot, immunofluorescence) in CCl4 model; assay type: in vivo, mice; conditions: immune-stained liver tissue, confocal microscopy
Method: as §4, with “A scrambled peptide was also i.p injected to CCl4 induced mice (5 mg/mice n=8, 10 mg/mice n=8).” left out, “Mice were sacrificed two days after the final CCl4 injection. To this end, the animals were weighed and anesthetized with inhaled 5% isoflurane for 10 seconds before cervical dislocation.” left out
Western blot analysis: Liver protein extracts were homogenized with buffer (50 mmol/L Tris-HCl [pH 7.61, 0.25% Triton-X 100, 0.15 M NaCl, 10 mM CaCl2) and complete mini EDTA-free protease inhibitor cocktail (Roche Diagnostics, Mannheim, Germany). […] Immunoreactivity was detected using an ECL kit (Abcam).
Immunofluorescence staining: For deparaffinization, paraffin-embedded sections were placed at 60° C. for 15 minutes, incubated in xylene at room temperature for 15 minutes, and then transferred sequentially to 100% EtOH, 95% EtOH, 70% EtOH, and 50% EtOH for four minutes each at room temperature. […] An argon laser (488 nm excitation) was used to detect green fluorescence, and an Alexa Fluor laser (552 nm) to detect red fluorescence. […]

β-neurexin = β-neurexin expression in liver by RT-PCR in CCl4 model; assay type: in vivo; conditions: relative to naïve mice, 5 or 10 mg/mice i.p. 3×/week for 4 weeks
Hep3B cells = assay: Cell cycle analysis of Hep3B cells by flow cytometry, PI staining; assay type: cell-based, human; conditions: 8000 ng/ml
Method: Cell cycle analysis by Flow cytometry: evaluation of cell cycle stage of Hep3B HCC cells, was performed according to a standard protocol, using Propidium-Iodide (PI)-staining of nuclei. To […] attenuation of the proliferative capabilities of HCC cells following modulation by peptide 1, the stage of the cell cycle of Hep3B cells treated with 8000 ng/ml peptide 1 or with a control peptide having a scrambled sequence was evaluate using flow cytometry and Propidium Iodide (PI)-staining.

[5] = molecular target: neurexin 1β (Nrx1β) expressed on Hep3B hepatocellular carcinoma cells (human, UniProt Q9ULB1-3 31-1547); assay: cell-based or functional assay
neurexin 1β (Nrx1β) expressed on Hep3B hepatocellular carcinoma cells, sequence (Q9ULB1 other isoform, or with tags, fused parts or gaps limits assumed): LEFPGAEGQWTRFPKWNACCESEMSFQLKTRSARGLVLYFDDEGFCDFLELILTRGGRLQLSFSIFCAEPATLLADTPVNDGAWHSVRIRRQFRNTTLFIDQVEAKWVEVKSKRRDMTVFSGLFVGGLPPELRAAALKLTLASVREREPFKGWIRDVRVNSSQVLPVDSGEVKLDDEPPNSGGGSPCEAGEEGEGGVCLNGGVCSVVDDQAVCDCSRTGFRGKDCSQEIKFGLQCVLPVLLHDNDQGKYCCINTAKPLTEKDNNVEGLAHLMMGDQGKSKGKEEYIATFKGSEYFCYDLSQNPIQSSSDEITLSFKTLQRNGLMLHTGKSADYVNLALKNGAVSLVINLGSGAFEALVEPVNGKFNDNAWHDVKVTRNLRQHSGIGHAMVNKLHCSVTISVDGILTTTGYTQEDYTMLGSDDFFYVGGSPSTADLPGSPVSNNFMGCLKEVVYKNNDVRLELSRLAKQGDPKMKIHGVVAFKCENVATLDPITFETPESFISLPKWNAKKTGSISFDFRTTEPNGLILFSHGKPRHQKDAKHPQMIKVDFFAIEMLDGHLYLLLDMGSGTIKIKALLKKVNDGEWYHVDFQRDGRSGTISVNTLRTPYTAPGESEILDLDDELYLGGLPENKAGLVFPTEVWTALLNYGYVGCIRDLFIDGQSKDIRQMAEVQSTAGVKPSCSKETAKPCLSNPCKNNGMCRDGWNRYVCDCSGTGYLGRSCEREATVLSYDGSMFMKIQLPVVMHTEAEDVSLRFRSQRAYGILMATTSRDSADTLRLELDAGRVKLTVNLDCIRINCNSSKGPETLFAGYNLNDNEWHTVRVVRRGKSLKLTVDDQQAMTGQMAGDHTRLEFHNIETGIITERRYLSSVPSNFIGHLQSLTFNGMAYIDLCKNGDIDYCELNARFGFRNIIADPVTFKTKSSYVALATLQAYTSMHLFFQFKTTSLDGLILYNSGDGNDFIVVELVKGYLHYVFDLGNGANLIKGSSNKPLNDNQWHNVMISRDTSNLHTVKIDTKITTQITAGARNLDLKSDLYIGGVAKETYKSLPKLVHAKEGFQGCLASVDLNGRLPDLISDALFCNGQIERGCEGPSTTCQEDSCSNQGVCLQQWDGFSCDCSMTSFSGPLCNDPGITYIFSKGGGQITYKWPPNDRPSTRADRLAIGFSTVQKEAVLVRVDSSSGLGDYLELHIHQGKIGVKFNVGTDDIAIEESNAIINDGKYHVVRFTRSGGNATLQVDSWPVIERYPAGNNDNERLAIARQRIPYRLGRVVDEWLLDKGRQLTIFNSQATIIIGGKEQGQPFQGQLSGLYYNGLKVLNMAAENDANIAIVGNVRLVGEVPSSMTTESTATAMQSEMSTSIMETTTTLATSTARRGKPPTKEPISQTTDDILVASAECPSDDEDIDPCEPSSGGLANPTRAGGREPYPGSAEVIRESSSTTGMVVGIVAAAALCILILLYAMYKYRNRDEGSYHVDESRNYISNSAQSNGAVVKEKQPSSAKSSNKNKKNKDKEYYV

Molecule: QILMEQGEFLNYDIM [peptide 2]
activity of LX2 cells (levels of αSMA) (LX2 cells [1]): deactivation of the cells
activity of NK cells (levels of CD107a) (NK cells; monoculture, 6 h stimulation, 2000, 4000, 8000 ng/ml (peptide 3: 2000 or 4000 ng/ml), vs untreated): elevated the activity of the cells
dose dependence of effect on NK cell activity (CD107a) (NK cells; monoculture, increasing concentrations 2000-8000 ng/ml): not dose-dependent
dose dependence of effect in co-culture (αSMA) (LX2 cells [2]; NK cells pre-activated with increasing concentrations): not dose-dependent
activity of LX2 cells (levels of αSMA) in co-culture with pre-activated NK cells (LX2 cells [2]; NK cells pre-stimulated 6 h with 2000-8000 ng/ml peptide, co-culture 24 h): downregulated the activity of the LX2 cells

Molecule: DPQILMEQGEFLNYDIMLGV [peptide 3]
toxicity to NK cells (NK cells; inferred from CD107a decrease at higher peptide concentrations): may be toxic to the cells

Molecule: LEGEDQNFYM [scrambled peptide]
levels of serum ALT [3]: significant increase in ALT levels
collagen deposition / fibrous dense tissue (Sirius Red staining) [4]: increased collagen deposition in perisinusoidal areas
F-actin inside NK cells, co-localization with NKP46 (immunofluorescence) (liver NK cells): not seen inside NK cells
levels of β-neurexin in liver (β-neurexin): elevated levels of β-neurexin
percentage of cells existing at a state of G1 (Hep3B cells): 38%
percentage of cells existing at a state of G2-M phase (Hep3B cells): 25%
percentage of cells existing at a state of S-phase (Hep3B cells): 11%

apoptotic marker phosphatidylserine (Annexin-V+/PI-) in Hep3B cells (flow cytometry), peptide 1 against scrambled control peptide [5]: 3 fold increase
expression of PDGFRA and MKI67 proliferation markers in Hep3B cells (flow cytometry), peptide 1 against scrambled control peptide [5]: ~2 fold reduction
percentage of Hep3B cells in G1 phase (PI staining, flow cytometry), 8000 ng/ml peptide 1 against scrambled control peptide [5]: ~2 fold increase
percentage of Hep3B cells in G2-M phase (PI staining, flow cytometry), 8000 ng/ml peptide 1 against scrambled control peptide [5]: 2.5 fold decrease
percentage of Hep3B cells in S-phase (PI staining, flow cytometry), 8000 ng/ml peptide 1 against scrambled control peptide [5]: ~2 fold decrease
phosphorylated AKT/mTOR/P70S6K in Hep3B cells (flow cytometry), peptide 1 against scrambled control peptide [5]: 2 fold reduction
Molecule: MEQGEFLNYD [NLGn4-Nrx1β PPI inhibitory peptide 1]
expression of the necrotic marker CDNK2A in Hep3B cells (flow cytometry), peptide 1 against scrambled control peptide [5]: 2 fold reduction
